Measured values as given in US12024707B2, “Methods and compositions for modulating lncRNAs and methods of treatment based on lncRNA expression” (Washington University, priority 2020, dated 2024).
“And” between values parts separate entries of the source, which are not always exact repeats. Equal values may be shown once. Where a name gives a salt, the structure may show the parent alone. Read-outs that look alike come from different tables or passages of the source.

Tested on: HT29 RAMS11 overexpressing cells
Test: High-throughput viability assay (resazurin), 119 FDA-approved anticancer drugs, RAMS11 overexpressing cells (Clone1, Clone2)
[1] = OE1 (RAMS11 overexpression clone 1), 0.1 uM drug, 72 h, vs empty vector control
[2] = OE1 (RAMS11 overexpression clone 1), 1 uM drug, 72 h, vs empty vector control
[3] = OE1 (RAMS11 overexpression clone 1), 10 uM drug, 72 h, vs empty vector control
[4] = OE2 (RAMS11 overexpression clone 2), 0.1 uM drug, 72 h, vs empty vector control
[5] = OE2 (RAMS11 overexpression clone 2), 1 uM drug, 72 h, vs empty vector control
[6] = OE2 (RAMS11 overexpression clone 2), 10 uM drug, 72 h, vs empty vector control

| Structure (SMILES) | Viability Fold Change [1] | Viability Fold Change [2] | Viability Fold Change [3] | Viability Fold Change [4] | Viability Fold Change [5] | Viability Fold Change [6] | Viability Fold Change |
| --- | --- | --- | --- | --- | --- | --- | --- |
| Cc1ccc(Nc2nccc(N(C)c3ccc4c(C)n(C)nc4c3)n2)cc1S(N)(=O)=O [Pazopanib hydrochloride] | 0.8743 | 0.7793 | 0.8633 | 0.9409 | 0.9056 | 0.9152 | – |
| Nc1nc2[nH]cc(CCc3ccc(C(=O)N[C@@H](CCC(=O)O)C(=O)O)cc3)c2c(=O)[nH]1 [Pemetrexed disodium salt] | 0.9118 | 0.9424 | 1.886 | 0.9953 | 0.9455 | 1.933 | – |
| OC[C@H]1O[C@@H](n2cnc3c2NC=NC[C@H]3O)C[C@@H]1O [Pentostatin] | 0.9312 | 0.9502 | 0.8658 | 0.9287 | 0.9777 | 1.078 | – |
| O=C(CCBr)N1CCN(C(=O)CCBr)CC1 [Pipobroman] | 0.9413 | 0.9838 | 0.9918 | 0.9432 | 0.9438 | 0.8949 | – |
| c1cc(CN2CCCNCCNCCCNCC2)ccc1CN1CCCNCCNCCCNCC1 [Plerixafor] | 0.9866 | 1.152 | 1.057 | 1.085 | 1.208 | 1.062 | – |
| Nc1cccc2c1C(=O)N(C1CCC(=O)NC1=O)C2=O (stereo not shown) [Pomalidomide] | 0.9335 | 0.9509 | 0.9014 | 0.9444 | 0.9433 | 0.933 | – |
| Cc1ccc(C(=O)Nc2ccc(CN3CCN(C)CC3)c(C(F)(F)F)c2)cc1C#Cc1cnc2cccnn12 [Ponatinib] | – | – | – | – | – | – | 1.056 and 0.9383 and 0.9645 and 1.199 and 0.9342 and 1.001 |
| C#CCC(Cc1cnc2nc(N)nc(N)c2n1)c1ccc(C(=O)N[C@@H](CCC(=O)O)C(=O)O)cc1 (stereo partly shown) [Pralatrexate] | 0.7405 | 0.9216 | 1.034 | 0.8579 | 0.9781 | 1.119 | – |
| CNNCc1ccc(C(=O)NC(C)C)cc1 [Procarbazine] | 1.003 | 1.042 | 0.9825 | 0.9328 | 1.046 | 0.9303 | – |
| O=C(c1ccc(OCCN2CCCCC2)cc1)c1c(-c2ccc(O)cc2)sc2cc(O)ccc12 [Raloxifene] | 0.9457 | 0.9244 | 0.9067 | 0.9401 | 0.9282 | 0.9671 | – |
| CO[C@H]1C[C@@H]2CC[C@@H](C)[C@@](O)(O2)C(=O)C(=O)N2CCCC[C@H]2C(=O)O[C@H]([C@H](C)C[C@@H]2CC[C@@H](O)[C@H](OC)C2)CC(=O)[C@H](C)/C=C(\C)[C@@H](O)[C@@H](OC)C(=O)[C@H](C)C[C@H](C)/C=C/C=C/C=C/1C [Rapamycin] | 0.7003 | 0.7403 | 0.7222 | 0.6232 | 0.772 | 0.7575 | – |
| CNC(=O)c1cc(Oc2ccc(NC(=O)Nc3ccc(Cl)c(C(F)(F)F)c3)c(F)c2)ccn1 [Regorafenib] | 0.938 | 0.9476 | 1.158 | 0.9919 | 1.09 | 1.143 | – |
| C/C=C1\NC(=O)[C@H]2CSSCC/C=C/[C@H](CC(=O)N[C@H](C(C)C)C(=O)N2)OC(=O)[C@H](C(C)C)NC1=O [Romidepsin] | 6.243 | 5.327 | 4.427 | 6.211 | 5.577 | 4.697 | – |
| CNC(=O)c1cc(Oc2ccc(NC(=O)Nc3ccc(Cl)c(C(F)(F)F)c3)cc2)ccn1 [Sorafenib] | 0.8542 | 0.8177 | 1.022 | 0.8959 | 0.8971 | 1.017 | – |
| CN(N=O)C(=O)N[C@@H](C=O)[C@@H](O)[C@H](O)[C@H](O)CO [Streptozocin] | 1.06 | 1.011 | 0.905 | 0.9729 | 1.036 | 0.9955 | – |
| CCN(CC)CCNC(=O)c1c(C)[nH]c(/C=C2\C(=O)Nc3ccc(F)cc32)c1C [Sunitinib] | 0.8337 | 0.8856 | 0.2329 | 0.914 | 0.9165 | 0.5714 | – |

| Structure (SMILES) | Viability Fold Change [1] | Viability Fold Change [2] | Viability Fold Change [3] | Viability Fold Change [4] | Viability Fold Change [5] | Viability Fold Change [6] | Viability Fold Change |
| --- | --- | --- | --- | --- | --- | --- | --- |
| CC/C(=C(\c1ccccc1)c1ccc(OCCN(C)C)cc1)c1ccccc1 [Tamoxifen Citrate] | 1.127 | 1.144 | 1.077 | 1.097 | 1.08 | 1.059 | – |
| Cn1nnc2c(C(N)=O)ncn2c1=O [Temozolomide] | 0.9344 | 0.9467 | 0.8777 | 0.8975 | 1.032 | 0.9198 | – |
| CO[C@H]1C[C@@H]2CC[C@@H](C)[C@@](O)(O2)C(=O)C(=O)N2CCCC[C@H]2C(=O)O[C@H]([C@H](C)C[C@@H]2CC[C@@H](OC(=O)C(C)(CO)CO)[C@H](OC)C2)CC(=O)[C@H](C)/C=C(\C)[C@@H](O)[C@@H](OC)C(=O)[C@H](C)C[C@H](C)/C=C/C=C/C=C/1C [Temsirolimus] | 0.7059 | 0.6733 | 0.6861 | 0.6816 | 0.7302 | 0.693 | – |
| COc1cc([C@@H]2c3cc4c(cc3[C@@H](O[C@@H]3O[C@@H]5CO[C@@H](c6cccs6)O[C@H]5[C@H](O)[C@H]3O)[C@H]3COC(=O)[C@H]23)OCO4)cc(OC)c1O [Teniopside] | 1.038 | 1.327 | 2.288 | 0.9657 | 1.349 | 2.261 | – |
| O=C1CCC(N2C(=O)c3ccccc3C2=O)C(=O)N1 (stereo not shown) [Thalidomide] | 0.9251 | 0.9878 | 0.9064 | 0.8995 | 1 | 1.074 | – |
| Nc1nc2nc[nH]c2c(=S)[nH]1 [Thioguanine] | 0.9423 | 0.9288 | 0.9702 | 0.8995 | 0.8724 | 1.01 | – |
| S=P(N1CC1)(N1CC1)N1CC1 [Thiotepa] | – | – | – | – | – | – | 0.7908 and 0.9826 and 0.9401 and 0.9694 and 0.9433 and 0.8817 |
| CC[C@@]1(O)C(=O)OCc2c1cc1n(c2=O)Cc2cc3c(CN(C)C)c(O)ccc3nc2-1 [Topotecan HCL] | 1.11 | 2.225 | 3.389 | 1.018 | 2.127 | 2.763 | – |
| CC(=O)Nc1cccc(-n2c(=O)n(C3CC3)c(=O)c3c(Nc4ccc(I)cc4F)n(C)c(=O)c(C)c32)c1 [Trametinib] | 1.35 | 1.732 | 1.975 | 1.213 | 1.641 | 1.886 | – |
| CC1=C(/C=C/C(C)=C/C=C/C(C)=C/C(=O)O)C(C)(C)CCC1 [Tretinoin] | 1.161 | 1.226 | 1.142 | 1.068 | 1.373 | 1.336 | – |
| C1CN1c1nc(N2CC2)nc(N2CC2)n1 [Triethylenemelamine] | – | – | – | – | – | – | 1.287 and 1.238 and 0.9974 and 1.295 and 1.284 and 1.013 |
| Oc1ncc(N(CCCl)CCCl)c(O)n1 [Uracil mustard] | – | – | – | – | – | – | 0.8306 and 1.02 and 0.9705 and 0.9647 and 1.048 and 0.932 |
| CCCCC(=O)OCC(=O)[C@]1(O)Cc2c(O)c3c(c(O)c2[C@@H](O[C@H]2C[C@H](NC(=O)C(F)(F)F)[C@H](O)[C@H](C)O2)C1)C(=O)c1c(OC)cccc1C3=O [Valrubicin] | 0.9645 | 1.163 | 1.863 | 0.9166 | 1.213 | 1.792 | – |
| COc1cc2c(Nc3ccc(Br)cc3F)ncnc2cc1OCC1CCN(C)CC1 [Vandetanib] | 0.9025 | 0.8127 | 1.181 | 0.971 | 0.9162 | 1.142 | – |
| CCCS(=O)(=O)Nc1ccc(F)c(C(=O)c2c[nH]c3ncc(-c4ccc(Cl)cc4)cc23)c1F [Vemurafenib] | 0.6921 | 0.4381 | 0.569 | 0.762 | 0.5468 | 0.6144 | – |
